Where two headings read alike, the source gives them in different places. Peptide text beside a SMILES is read from it. * marks the point of attachment. Hydrocinnamoyl = O=C(CCc1ccccc1)*; Tos = Cc1ccc(S(=O)(=O)*)cc1
Columns and labels:
thrombin = thrombin (Homo sapiens, UniProt P00734); assay: Thrombin assay, chromogenic substrate Pefachrome t-PA; format: biochemical; details: purified human enzyme, 30 minute incubation, HBSA pH 7.5
Procedure: (§1) The buffer used for all assays was HBSA (10 mM HEPES, pH 7.5, 150 mM sodium chloride, 0.1% bovine serum albumin). […] Following a 30 minute incubation at ambient temperature, 50 μL of the substrate at the concentrations specified below, was added to the wells yielding a final total volume of 200 μL.
Thrombin catalytic activity was determined using the chromogenic substrate Pefachrome t-PA (CH3 SO2 -D-hexahydrotyrosine-glycyl-L-arginine-p-nitroaniline, obtained from Pentapharm Ltd.).

plasmin = plasmin (Homo sapiens, UniProt P00747); assay: Plasmin assay, chromogenic substrate S-2251; format: biochemical; details: purified human enzyme, 30 minute incubation, HBSA pH 7.5
Sequence of plasmin (P00747 581-810 limits assumed): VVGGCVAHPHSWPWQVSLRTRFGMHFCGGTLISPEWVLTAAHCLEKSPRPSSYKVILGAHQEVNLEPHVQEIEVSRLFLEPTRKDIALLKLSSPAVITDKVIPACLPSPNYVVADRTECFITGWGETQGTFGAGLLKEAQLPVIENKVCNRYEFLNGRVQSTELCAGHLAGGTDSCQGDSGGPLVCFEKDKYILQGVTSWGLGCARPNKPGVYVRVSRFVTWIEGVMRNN
Sequence of plasmin (P00747 97-580 partner limits assumed): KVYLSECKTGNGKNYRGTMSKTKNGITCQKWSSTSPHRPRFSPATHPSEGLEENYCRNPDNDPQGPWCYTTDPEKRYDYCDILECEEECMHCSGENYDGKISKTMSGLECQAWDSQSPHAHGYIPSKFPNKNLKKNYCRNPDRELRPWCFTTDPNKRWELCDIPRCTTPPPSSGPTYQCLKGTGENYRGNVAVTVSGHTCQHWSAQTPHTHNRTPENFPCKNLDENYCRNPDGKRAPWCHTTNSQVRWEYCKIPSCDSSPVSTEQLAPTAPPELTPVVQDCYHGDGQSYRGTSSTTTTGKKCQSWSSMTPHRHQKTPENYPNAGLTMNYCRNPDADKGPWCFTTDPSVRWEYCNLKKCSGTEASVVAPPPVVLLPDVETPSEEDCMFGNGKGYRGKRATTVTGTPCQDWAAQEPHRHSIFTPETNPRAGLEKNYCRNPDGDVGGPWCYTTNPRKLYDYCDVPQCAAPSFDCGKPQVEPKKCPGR
Procedure: as §1, with “μL. The initial velocity of chromogenic substrate hydrolysis was measured by the change in absorbance at 405 nm using a Thermo Max® Kinetic Microplate Reader over a 5 minute period in which less than 5% of the added substrate was utilized.” for “μL.”
Plasmin catalytic activity was determined using the chromogenic substrate, S-2251 [D-valyl-L-leucyl-L-lysine-p-nirtoanilide dihydrochloride], which was obtained from Kabi Diagnostica.

factor Xa = molecular target: T1, factor Xa (Homo sapiens, UniProt P00742); assay: Factor Xa assay, chromogenic substrate S2765; format: biochemical; details: purified human enzyme, 30 minute incubation, HBSA pH 7.5
T1 construct: Human factor Xa was prepared from purified human factor X obtained from Enzyme Research Laboratories; purchased Enzyme Research Laboratories
T1 sequence (P00742 235-488 limits assumed): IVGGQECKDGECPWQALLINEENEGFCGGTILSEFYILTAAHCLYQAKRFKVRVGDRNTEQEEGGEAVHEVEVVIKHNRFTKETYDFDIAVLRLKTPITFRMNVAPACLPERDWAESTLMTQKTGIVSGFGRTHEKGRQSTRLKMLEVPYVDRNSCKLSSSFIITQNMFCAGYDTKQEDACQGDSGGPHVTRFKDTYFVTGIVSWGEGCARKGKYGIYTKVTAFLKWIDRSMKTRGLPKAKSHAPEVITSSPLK
T1 sequence (P00742 41-179 partner limits assumed): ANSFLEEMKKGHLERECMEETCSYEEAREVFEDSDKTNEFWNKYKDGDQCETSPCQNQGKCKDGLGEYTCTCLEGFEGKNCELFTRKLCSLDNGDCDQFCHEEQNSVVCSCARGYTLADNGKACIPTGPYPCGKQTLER
Procedure: as §1, with “μL. The initial velocity of chromogenic substrate hydrolysis was measured by the change in absorbance at 405 nm using a Thermo Max® Kinetic Microplate Reader over a 5 minute period in which less than 5% of the added substrate was utilized.” for “μL.”
Factor Xa catalytic activity was determined using the substrate, S2765 (N-α-benzyloxycarbonyl-D-argininyl-L-glycyl-L-arginine-p-nitroanilide dihydrochloride) which was obtained from Kabi Diagnostica. […] Human factor Xa was prepared from purified human factor X obtained from Enzyme Research Laboratories according to the method described by Bock, P. E. et al., Archives of Biochem. Biophys. 273: 375 (1989). The enzyme was diluted into HBSA prior to the assay in which the final concentration was 0.5 nM.

[1] = system: FeCl3 -induced platelet-dependent arterial thrombosis; format: in vivo; details: rat carotid artery
Text: Res., 60: 269-280 (1990). […] Res., 60: 269-280 (1990). […] The animals were then euthanized.

[2] = system: activated partial thromboplastin time (APTT); assay: APTT clotting time of blood samples after oral dosing in dogs; format: in vivo, dog; details: both doses (10 and 20 mg/kg)
Procedure: (§2) The pharmacodynamic and pharmacokinetic parameters of the compound of Example 34 (and same compound described in Example 91) were evaluated after oral administration in dogs. Adult beagle dogs (9-12 kg) were housed individually in standard cages, and were fed a standard certified commercial diet and tap water ad libitum. Dogs were given an oral dose of either 10 mg/kg or 20 mg/kg test compound, in 55 ml deionized water, via a gastric tube, followed by a water rinse. In a separate protocol, 5 mg/kg of test compound, in 5 ml 0.9% sodium chloride, were administered by fast bolus i.v. injection through an indwelling saphenous vein catheter. The same dogs were used for all doses and both routes of administration, with a one week wash out period between use of the dogs for the different doses and protocols.
Blood samples were collected during the experimental period from the cephalic vein using sodium citrate (0.38% final concentration) as anticoagulant (nine volumes blood to one volume sodium citrate). […]
(§3) The blood levels of test compound were measured by extracting the compound from plasma, separation by HPLC, and post-column derivatization with a fluorogenic functional group. The clotting time of blood was measured using an APTT assay, which measures the prolongation of the activated partial thromboplastin time (APTT) by the test compound. […]

[3] = Pharmacokinetics after oral and i.v. administration in dogs; format: in vivo, dog
Procedure: as §2, with “protocols. […]” for “protocols.”
as §3
The systemic bioavailability of the test compound administered by the oral route was calculated by comparing the AUC values (area under curve describing level of compound in blood over time) after i.v. and oral administration. […]

Compound | IC50 (thrombin) [nM] | IC50 (plasmin) [nM] | IC50 (factor Xa) [nM] | other results
N=C(N)NCCC[C@@H](C=O)NC(=O)[C@@H]1CCCN1C(=O)[C@H](CC(=O)O)NC(=O)CC1CCCCC1 [ChxAc-Asp-Pro-Arg-al, N-(1-cyclohexylacetyl)-L-aspartyl-L-prolyl-L-argininal] | 47 | 75 | 15 | 
N-phenylsulfonyl-L-aspartyl-(β-methyl ester)-L-prolyl-L-argininal [BzlSO2 -Asp(OCH3)-Pro-Arg-al] | 5 |  | 30 | 
COC(=O)C[C@H](NS(=O)(=O)c1ccc(C)cc1)C(=O)N1CCC[C@H]1C(=O)N[C@H](C=O)CCCNC(=N)N [(4-MePh)SO2 -Asp(OCH3)-Pro-Arg-al, N-(4-methylphenylsulfonyl)-L-aspartyl-(β-methyl ester)-L-prolyl-L-argininal] (Tos-Asp(OMe)-Pro-Arg-aldehyde) | 1.1 | 111 | 9.5 | 
CCCC(CCC)C(=O)N[C@@H](CC(=O)OC)C(=O)N1CCC[C@H]1C(=O)N[C@H](C=O)CCCNC(=N)N [2PrPent-Asp(OCH3)-Pro-Arg-al, N-(2-propylpentanoyl)-L-aspartyl-β-(methyl ester)-L-prolyl-L-argininal] |  | 261 |  | 
COC(=O)C[C@H](NS(=O)(=O)c1ccc2ccccc2c1)C(=O)N1CCC[C@H]1C(=O)N[C@H](C=O)CCCNC(=N)N [2-NpSO2 -Asp(OCH3)-Pro-Arg-al, N-(2-naphthylsulfonyl)-L-aspartyl-(β-methyl ester)-L-prolyl-L-argininal] | 0.62 | 106 | 4.3 | 
N=C(N)NCCC[C@@H](C=O)NC(=O)[C@@H]1CCCN1C(=O)[C@H](CC(=O)O)NC(=O)CCc1ccccc1 [HCA-Asp-Pro-Arg-al, N-(3-phenylpropionyl)-L-aspartyl-L-prolyl-L-argininal] (Hydrocinnamoyl-Asp-Pro-Arg-aldehyde) |  | 481 |  | Incidence of Occlusion ([1]; Group1, 25 μg/kg/min i.v. infusion): 5/6; Incidence of Occlusion ([1]; Group2, 50 μg/kg/min i.v. infusion): 1/5; Incidence of Occlusion ([1]; Group3, 100 μg/kg/min i.v. infusion): 0/5
N=C(N)NCCC[C@@H](C=O)NC(=O)[C@@H]1CCCN1C(=O)[C@H](CC(=O)O)NC(=O)CCC1CCCCC1 [ChxPA-Asp-Pro-Arg-al, N-(3-cyclohexanepropionyl)-L-aspartyl-L-prolyl-L-argininal] |  | 250 |  | 
CCCC(CCC)C(=O)N[C@@H](CC(=O)OC)C(=O)N1CCC[C@H]1C(=O)N[C@H](C=O)CCCNC(=N)N.O=C(O)C(F)(F)F [Example 34, N-(2-propylpentanoyl)-L-aspartyl-beta-(methyl ester)-L-prolyl-L-argininal, trifluoroacetate salt] |  |  |  | duration of elevated APTT [2]: up to two hours; time to significant elevation of APTT [2]: 20 to 30 min; time to maximum blood level of compound [3]: 45 to 60 min
CC(C)CCC(=O)N[C@@H](CC(=O)O)C(=O)N1CCC[C@H]1C(=O)N[C@H](C=O)CCCNC(=N)N [4MeV-Asp-Pro-Arg-al, N-(4-methylpentanoyl)-L-aspartyl-L-prolyl-L-argininal] |  | 396 |  | 
CCCCS(=O)(=O)N[C@@H](CC(=O)OC)C(=O)N1CCC[C@H]1C(=O)N[C@H](C=O)CCCNC(=N)N [n-BuSO2 -Asp(OCH3)-Pro-Arg-al, N-(butylsulfonyl)-L-aspartyl-(β-methyl ester)-L-prolyl-L-argininal] | 3.7 | 250 | 15 | 
CCCC(CCC)C(=O)N[C@@H](CC(=O)O)C(=O)N1CCC[C@H]1C(=O)N[C@H](C=O)CCCNC(=N)N [2PrPent-Asp-Pro-Arg-al, N-(2-propylpentanoyl)-L-aspartyl-L-prolyl-L-argininal] |  | 254 |  | 

Reference: patent US5955576A, “Inhibitors of thrombosis” (Corvas International, Inc., priority 1995, dated 1999)
